Test results published in DBAASP.
Values after ≈ are worked out from the molar mass of the structure shown.

Assays:
Assay in all cases: ≥ marks a high value that may be exact or a test limit, other limits are often not marked, values filed in µg/mL are converted to µM
[1] = test system: Micrococcus luteus ATCC 10240
[2] = test system: Bacillus subtilis DSM 347
Escherichia coli 1103 = test system: Escherichia coli 1103
Escherichia coli BL21AI = test system: Escherichia coli BL21AI
[3] = test system: Escherichia coli DSM 10233
[4] = test system: Klebsiella pneumoniae DSM 681
[5] = test system: Salmonella enterica subsp. enterica serovar Enteritidis ATCC 13076
[6] = test system: Pseudomonas putida ATCC 17426
[7] = test system: Candida albicans ATCC 10231
[8] = test system: Streptococcus mutans ATCC 25175
[9] = test system: Bacillus subtilis ATCC 62037
[10] = test system: Escherichia coli ATCC 27325
[11] = test system: Staphylococcus aureus ATCC 15752
[12] = test system: Saccharomyces cerevisiae ATCC 44774
[13] = test system: Cryptococcus neoformans ATCC 34881
Pseudomonas aeruginosa = test system: Pseudomonas aeruginosa
[14] = test system: Trichophyton mentagrophytes IFO 5466
[15] = test system: Trypanosoma brucei brucei GUT Tat3.1
[16] = test system: Staphylococcus aureus KO-4
[17] = test system: Pseudomonas aeruginosa KCTC 1637
[18] = test system: Staphylococcus aureus CCARM 3001
[19] = test system: Staphylococcus epidermidis KCTC 1917
[20] = test system: Pseudomonas aeruginosa CCARM 2095
[21] = test system: Escherichia coli KCTC 1682
[22] = test system: Staphylococcus aureus KCTC 1621
[23] = test system: Pseudomonas aeruginosa CCARM 2109
[24] = test system: Salmonella typhimurium KCTC 1926
[25] = test system: Bacillus subtilis KCTC 3068
[26] = test system: Staphylococcus aureus CCARM 3543
[27] = test system: Aspergillus fumigatus KCTC 4165
[28] = test system: Bacillus subtilis KCTC 1918
[29] = test system: Candida albicans TIMM 1768
[30] = test system: Streptococcus pyogenes KCTC 3096
[31] = test system: Staphylococcus epidermidis ATCC 12228
[32] = test system: Escherichia coli ATCC 25922
[33] = test system: Shigella dysenteriae ATCC 9752
[34] = test system: Staphylococcus aureus ATCC 6538P
[35] = test system: Klebsiella pneumoniae ATCC 10031
[36] = test system: Salmonella enterica subsp. enterica serovar Typhimurium ATCC 14028
[37] = test system: Bacillus subtilis ATCC 6633
[38] = test system: Pseudomonas aeruginosa ATCC 27853
[39] = test system: Staphylococcus aureus TK784

CC[C@H](C)[C@H](NC(=O)[C@@H]1CCCN1C(=O)[C@H](CCC(N)=O)NC(=O)[C@@H]1CCCN1C(=O)[C@H](CCCN=C(N)N)NC(=O)[C@@H]1CCCN1C(=O)[C@@H]1CCCN1C(=O)[C@H](Cc1cnc[nH]1)NC(=O)[C@@H]1CCCN1C(=O)[C@H](CCCN=C(N)N)NC(=O)[C@@H](N)CC(C)C)C(=O)N[C@@H](Cc1ccc(O)cc1)C(=O)N[C@H](C(=O)N1CCC[C@H]1C(=O)N[C@@H](CCCN=C(N)N)C(=O)N[C@@H](CC(N)=O)C(=O)N[C@@H](CC(N)=O)C(=O)NCC(N)=O)C(C)C [LRPHPPRPQPIYVPRNNG]
MIC [1]: ≥ 59.3 µM | MIC [2]: ≥ 59.3 µM | MIC (Escherichia coli 1103): ≥ 59.3 µM | MIC (Escherichia coli BL21AI): ≥ 59.3 µM | MIC [3]: ≥ 59.3 µM | MIC [4]: ≥ 59.3 µM

CC(C)[C@H](NC(=O)[C@H](CCCCN)NC(=O)CNC(=O)CNC(=O)[C@H](CCC(N)=O)NC(=O)[C@H](CCCCN)NC(=O)CNC(=O)[C@H](CCCN=C(N)N)NC(=O)CNC(=O)[C@H](C)N)C(=O)N[C@@H](CCCN=C(N)N)C(=O)N[C@@H](C)C(=O)N[C@@H](CCCCN)C(=O)N[C@@H](C)C(=O)N[C@@H](CCCCN)C(=O)N[C@H](C(=O)N[C@@H](CCCN=C(N)N)C(=O)N[C@@H](CO)C(=O)N[C@@H](CO)C(=O)O)[C@@H](C)O [AGRGKQGGKVRAKAKTRSS]
MIC [5]: 8.23 µM (≈ 16 µg/mL) | MIC [6]: 2.06 µM (≈ 4 µg/mL) | MIC [7]: 8.23 µM (≈ 16 µg/mL) | MIC [8]: 8.23 µM (≈ 16 µg/mL) | MIC [9]: 4.12 µM (≈ 8 µg/mL) | MIC [10]: 2.06 µM (≈ 4 µg/mL) | MIC [11]: 8.23 µM (≈ 16 µg/mL) | MIC [12]: 4.12 µM (≈ 8 µg/mL) | MIC [13]: 4.12 µM (≈ 8 µg/mL)

CC[C@H](C)[C@H](NC(=O)[C@H](CCCN=C(N)N)NC(=O)[C@H](CC(C)C)NC(=O)[C@H](Cc1ccc(O)cc1)NC(=O)[C@H](CC(C)C)NC(=O)[C@@H](N)CCCN=C(N)N)C(=O)NCC(=O)N[C@@H](CCCN=C(N)N)C(=O)N[C@@H](CCCN=C(N)N)C(N)=O [RLYLRIGRR]
MIC (Pseudomonas aeruginosa): 333 µM (≈ 400 µg/mL) | MIC [14]: 20.8 µM (≈ 25 µg/mL) | MIC [15]: ≥ 205 µM | MIC [16]: ≥ 499 µM

NC(=O)[C@H](CCCN=C(N)N)NC(=O)[C@H](CCCN=C(N)N)NC(=O)[C@H](Cc1c[nH]c2ccccc12)NC(=O)[C@H](CCCN=C(N)N)NC(=O)[C@H](CCCN=C(N)N)NC(=O)[C@H](Cc1c[nH]c2ccccc12)NC(=O)[C@H](CCCN=C(N)N)NC(=O)[C@H](CCCN=C(N)N)NC(=O)[C@H](Cc1c[nH]c2ccccc12)NC(=O)[C@H](CCCN=C(N)N)NC(=O)[C@@H](N)CCCN=C(N)N [RRWRRWRRWRR]
MIC [17]: 8 µM (≈ 14.6 µg/mL) | MIC [18]: 8 µM (≈ 14.6 µg/mL) | MIC [19]: 2 µM (≈ 3.65 µg/mL) | MIC [20]: 16 µM (≈ 29.2 µg/mL) | MIC [21]: 8 µM (≈ 14.6 µg/mL) | MIC [22]: 8 µM (≈ 14.6 µg/mL) | MIC [23]: 16 µM (≈ 29.2 µg/mL) | MIC [24]: 4 µM (≈ 7.3 µg/mL) | MIC [25]: 4 µM (≈ 7.3 µg/mL) | MIC [26]: 4 µM (≈ 7.3 µg/mL)

CC[C@H](C)[C@H](NC(=O)[C@H](CCCCN)NC(=O)[C@H](CCCCN)NC(=O)[C@H](CC(C)C)NC(=O)[C@H](CCCCN)NC(=O)[C@H](CCC(=O)O)NC(=O)CN)C(=O)NCC(=O)N[C@@H](CCCCN)C(=O)N[C@@H](CCCCN)C(=O)N[C@H](C(=O)N[C@@H](CCCCN)C(=O)N[C@@H](CC(N)=O)C(=O)N[C@@H](Cc1ccccc1)C(=O)N[C@@H](Cc1ccccc1)C(=O)N[C@@H](CCC(N)=O)C(=O)N[C@@H](CCCCN)C(=O)N[C@@H](CC(C)C)C(=O)O)[C@@H](C)CC [GEKLKKIGKKIKNFFQKL]
MIC [17]: 3.12 µM (≈ 6.7 µg/mL) | MIC [27]: 25 µM (≈ 53.7 µg/mL) | MIC [28]: 12.5 µM (≈ 26.8 µg/mL) | MIC [29]: 25 µM (≈ 53.7 µg/mL) | MIC [21]: 12.5 µM (≈ 26.8 µg/mL) | MIC [22]: 12.5 µM (≈ 26.8 µg/mL) | MIC [24]: 6.25 µM (≈ 13.4 µg/mL) | MIC [30]: 25 µM (≈ 53.7 µg/mL)

CC(C)C[C@H](NC(=O)[C@H](Cc1c[nH]c2ccccc12)NC(=O)[C@H](CCCCN)NC(=O)[C@H](CCCCN)NC(=O)[C@H](CC(C)C)NC(=O)[C@H](Cc1c[nH]c2ccccc12)NC(=O)[C@H](CCCCN)NC(=O)[C@H](CCCCN)NC(=O)[C@@H](N)CC(C)C)C(=O)N[C@@H](CCCCN)C(=O)N[C@@H](CCCCN)C(N)=O [LKKWLKKWLKK]
MIC [31]: 26.7 µM (≈ 40 µg/mL) | MIC [1]: 26.7 µM (≈ 40 µg/mL) | MIC [32]: 13.3 µM (≈ 20 µg/mL) | MIC [33]: ≥ 53.4 µM | MIC [34]: 6.67 µM (≈ 9.99 µg/mL) | MIC [35]: ≥ 53.4 µM | MIC [36]: > 53.4 µM | MIC [37]: 13.3 µM (≈ 20 µg/mL) | MIC [38]: 26.7 µM (≈ 40 µg/mL) | MIC [39]: ≥ 53.4 µM
